Test systems include MDA-MB-231 breast; ACHN renal; EKVX NSCLC; RPMI-8226 leukemia; SNB-75 CNS; NCI-H23 lung; OVCAR-8 ovarian; UACC-257 melanoma; NCI/ADR-RES ovarian; SF-268 CNS.
Common to all, as to experiment: NCI-60 cell line screen, 48 h

These results are taken from PubChem BioAssay (NCI).

Molecules are shown by their SMILES.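 1) Cells in 96-well plates. 2) Compound, 48 h, 5 concentrations. 3) Linear interpolation between surrounding doses. 4) Unreached endpoint = highest concentration. GI50 is the concentration that inhibits growth by half. TGI: concentration producing complete growth inhibition.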

Turning to `O=C(/C=C/c1ccc([N+](=O)[O-])cc1)N1CCN(CCOC(c2ccc(F)cc2)c2ccc(F)cc2)CC1`, the TGI in the assay on MDA-MB-231 breast is more than 100 µM; with ACHN renal, more than 100 µM; with EKVX NSCLC, more than 100 µM; with RPMI-8226 leukemia it was 36.9 µM; with SNB-75 CNS, more than 100 µM; in the assay with NCI-H23 lung, more than 100 µM. Moreover, the TGI in the assay with OVCAR-8 ovarian, with UACC-257 melanoma, in the assay on NCI/ADR-RES ovarian and in the assay on SF-268 CNS was more than 100 µM each time.

With `O=C1Nc2cccc(Cl)c2/C1=C\c1cccnc1`, the TGI with ACHN renal is more than 100 µM; with EKVX NSCLC, 93.1 µM; in the assay on SNB-75 CNS, 40.2 µM; in the assay on NCI-H23 lung it was 15.8 µM; with OVCAR-8 ovarian, 20.1 µM; in the assay on UACC-257 melanoma it was 16.8 µM. Besides, the TGI with NCI/ADR-RES ovarian was 15.9 µM; with SF-268 CNS, 25.6 µM.

For `Cc1csc2nc(-c3cccc([N+](=O)[O-])c3)c(/C=N/N=C(N)N)n12`, the TGI was 2.95 µM with MDA-MB-231 breast; 3.63 µM with ACHN renal; 2.96 µM in the assay on EKVX NSCLC; 3.16 µM in the assay with SNB-75 CNS; 3.49 µM with NCI-H23 lung; 3.2 µM in the assay with OVCAR-8 ovarian. For the same compound, the TGI in the assay with UACC-257 melanoma stood at 3.22 µM; with NCI/ADR-RES ovarian, 36.3 µM; in the assay with SF-268 CNS, 3.29 µM.

As for `COC(=O)c1c(O)ccc2c1c1c(n2CCc2ccc(OC)c(OC)c2)C(=O)c2ccccc2C1=O`, the TGI was determined as 52.3 µM in the assay on MDA-MB-231 breast; 35.9 µM in the assay with ACHN renal; 40.8 µM in the assay on EKVX NSCLC; 28 µM with RPMI-8226 leukemia; 31.5 µM with NCI-H23 lung; 32.6 µM with OVCAR-8 ovarian. Further, the TGI came out at 35.8 µM in the assay on UACC-257 melanoma, 31.7 µM in the assay on NCI/ADR-RES ovarian and 41 µM in the assay with SF-268 CNS.

Take `Brc1ccc(-c2[nH]c3ccccc3c2/C=N\Nc2ccc(-c3nc4ccccc4[nH]3)cc2)cc1`: the TGI in the assay on MDA-MB-231 breast was 0.559 µM; with ACHN renal, 17.3 µM; in the assay with EKVX NSCLC, more than 52.2 µM; with RPMI-8226 leukemia, 25.4 µM; with NCI-H23 lung, more than 46.6 µM; in the assay on OVCAR-8 ovarian it was more than 58.5 µM. In addition, the values for the TGI in the assay with UACC-257 melanoma, in the assay on NCI/ADR-RES ovarian and in the assay on SF-268 CNS were more than 100 µM, more than 100 µM and 6.28 µM, respectively.

In the case of `O=C1OC(c2ccc(O)cc2)(c2ccc(O)cc2)c2ccc(Cl)c3cccc1c23` (tested in a mixture with another compound), the TGI with MDA-MB-231 breast turned out to be 26.1 µM; in the assay with ACHN renal it was 39.8 µM; in the assay on EKVX NSCLC, 4.88 µM; with RPMI-8226 leukemia, 28.4 µM; with NCI-H23 lung it was 31 µM; in the assay on OVCAR-8 ovarian it was 38.9 µM. Moreover, the TGI with UACC-257 melanoma came to 70.1 µM; in the assay on NCI/ADR-RES ovarian, 25.7 µM; in the assay on SF-268 CNS, 52.8 µM.

Regarding `Cc1ncc(C(=O)Nc2ccc(CN3CCN(C)CC3)c(C(F)(F)F)c2)cc1C#Cc1cnc(N)c2ccc(C#N)cc12`, the GI50 in the assay with EKVX NSCLC is 0.0827 µM; in the assay on NCI-H23 lung, 0.0959 µM; in the assay with UACC-257 melanoma, 0.0538 µM; with NCI/ADR-RES ovarian, 1.81 µM; in the assay with SF-268 CNS, 0.0399 µM. Also, the TGI is 29.6 µM in the assay with EKVX NSCLC; 3.28 µM with NCI-H23 lung; 1.61 µM in the assay with UACC-257 melanoma; 5.05 µM with NCI/ADR-RES ovarian; more than 100 µM in the assay with SF-268 CNS.

With `COc1cc(/C=N/NC(=O)c2c(Cl)c(Cl)c(Cl)c(Cl)c2-c2nc3ccc(C(=O)c4ccccc4)cc3[nH]2)ccc1O`, the TGI with MDA-MB-231 breast was more than 100 µM; with ACHN renal, more than 100 µM; with EKVX NSCLC, more than 100 µM; in the assay with RPMI-8226 leukemia, 89.5 µM; in the assay on SNB-75 CNS it was more than 100 µM; with NCI-H23 lung, more than 100 µM. For the same compound, the TGI in the assay on OVCAR-8 ovarian is more than 100 µM; in the assay on UACC-257 melanoma, more than 100 µM; with NCI/ADR-RES ovarian, 77 µM; in the assay on SF-268 CNS, more than 100 µM.

Regarding `O=C(O)c1cc2ccccc2c(N=Nc2ccc(S(=O)(=O)Nc3ccccn3)cc2)c1O`, the TGI in the assay on MDA-MB-231 breast, in the assay with ACHN renal, with EKVX NSCLC, in the assay on RPMI-8226 leukemia, in the assay on SNB-75 CNS and in the assay on OVCAR-8 ovarian was more than 100 µM each time. In addition, the TGI with UACC-257 melanoma, in the assay with NCI/ADR-RES ovarian and in the assay on SF-268 CNS was more than 100 µM in each case.

With `O=S(=O)(c1ccccc1)C1CC(c2nc3ccccc3[nH]2)=NO1` (stereo not drawn), the TGI in the assay on MDA-MB-231 breast, in the assay with ACHN renal, with EKVX NSCLC, in the assay on RPMI-8226 leukemia, in the assay with SNB-75 CNS and in the assay on NCI-H23 lung was more than 100 µM each time. Also, the TGI in the assay on OVCAR-8 ovarian, with UACC-257 melanoma, in the assay on NCI/ADR-RES ovarian and with SF-268 CNS was more than 100 µM each time.

In the case of `CCCCCCCCCCCCc1ccc(S(=O)(=O)O)cc1.[Cu+2]`, the TGI in the assay on MDA-MB-231 breast, in the assay with ACHN renal, in the assay with EKVX NSCLC, with RPMI-8226 leukemia, in the assay on SNB-75 CNS and with NCI-H23 lung was more than 100 µM each time. In addition, the TGI in the assay on OVCAR-8 ovarian, in the assay with UACC-257 melanoma, in the assay with NCI/ADR-RES ovarian and with SF-268 CNS was more than 100 µM in each case.
